Test results as given in patent publication US7410966B2, “Use of and some novel imidazopyridines” (AstraZeneca AB, priority 2002, dated 2008).
Structures can show the parent of a compound that is named as a salt.

molecular target: T1, recombinant human Itk kinase domain fused with GST (Homo sapiens, UniProt Q08881); assay: Itk LANCE TRF Assay; assay type: biochemical; details: 2 μM biotinylated peptide substrate, 50 μM ATP, 50 minutes RT, read-out: Inhibition of Kinase Itk (IC50 μM)
T1 construct: recombinant human Itk kinase domain fused with GST (Glutathione S-Transferase); GST (Glutathione S-Transferase); made in house; host or cells: High Five insect cells
T1 sequence (Q08881 363-615 limits assumed): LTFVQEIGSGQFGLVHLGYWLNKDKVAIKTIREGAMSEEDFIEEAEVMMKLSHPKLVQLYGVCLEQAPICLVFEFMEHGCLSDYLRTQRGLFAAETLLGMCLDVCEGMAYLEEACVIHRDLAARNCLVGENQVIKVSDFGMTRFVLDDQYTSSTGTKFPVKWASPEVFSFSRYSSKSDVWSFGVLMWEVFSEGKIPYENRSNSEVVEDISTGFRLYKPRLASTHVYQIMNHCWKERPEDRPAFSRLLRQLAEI
Experimental: The Itk kinase assay utilized recombinant human Itk kinase domain fused with GST (Glutathione S-Transferase). The protein was expressed in High five insect cells, purified in one step on an affinity chromatography glutathione column and stored in 50 mM Tris/HCl (pH 7.6), 150 mM NaCl, 5% (w/v) mannitol, 1 mM DTT, 30% glycerol at −70° C. The kinase substrate used in the assay was a biotinylated peptide derived from the Src-optimal substrate (Nair et al, J. Med. Chem., 38: 4276, 1995; biotin-AEEEIYGEFEAKKKK).
The assay additions were as follows: Test compounds (or controls; 1 μL in 100% DMSO) were added to black 96-well flat-bottomed plates (Greiner 655076) followed by 20 μL Itk in assay buffer and the reaction was started by adding 20 μL ATP and peptide substrate in assay buffer. The assay buffer constitution during, phosphorylation was: 50 mM HEPES (pH 6.8), 10 mM MgCl2, 0.015% Brij 35, 1 mM DTT, 10% glycerol, 160 ng/well Itk, 2 μM peptide substrate and 50 μM ATP. The assay was stopped after 50 minutes (RT) by adding 150 μL ice-cold Stop solution (50 mM Tris/HCl, pH 7.5, 10 mM EDTA, 0.9% NaCl and 0.1% BSA) together with LANCE reagents (2 nM PT66-Eu^3+, Wallac AD0069 and 5 μg/mL Streptavidin-APC, Wallac AD0059. Both concentrations were final in stopped assay solution). The plates were measured on a Wallac 1420 Victor 2 instrument with TRF settings after 1 h incubation, and the ratio (665 signal/615 signal)*10000 was used to calculate the inhibition values. IC50 values were determined using XLfit.

Point of comparison: `Cc1ccc(-c2c(Cl)cnc3[nH]c(-c4ccc(OCCN5CCOCC5)cc4)nc23)cc1` [Example 238, 6-Chloro-7-(4-methylphenyl)-2-[4-(2-morpholin-4-ylethoxy)phenyl]-3H-imidazo[4,5-b]pyridine], IC50 0.35 µM. Against it:
- COc1cc(-c2nc3cc(Br)cnc3[nH]2)ccc1OCc1ccccc1 [Example 29, 2-[4-(Benzyloxy)-3-methoxyphenyl]-6-bromo-3H-imidazo[4,5-b]pyridine trifluoroacetate] — within 1.5-fold, 0.31 µM
- Brc1cnc2[nH]c(-c3ccc(OCCNc4nccs4)cc3)nc2c1 [Example 104, N-{2-[4-(6-Bromo-3H-imidazo[4,5-b]pyridin-2-yl)phenoxy]ethyl}-1,3-thiazol-2-amine bis(trifluoroacetate)] — within 1.5-fold, 0.24 µM
- OC1CCN(CC(O)COc2ccc(-c3nc4cc(Br)cnc4[nH]3)cc2)C1 (centres unmarked) [Example 124, 1-{3-[4-(6-Bromo-3H-imidazo[4,5-b]pyridin-2-yl)phenoxy]-2-hydroxypropyl}pyrrolidin-3-ol] — within 1.5-fold, 0.43 µM
- OCCN1CCN(CC(O)COc2ccc(-c3nc4cc(Br)cnc4[nH]3)cc2)CC1 (centres unmarked) [Example 162, 1-[4-(6-Bromo-3H-imidazo[4,5-b]pyridin-2-yl)phenoxy]-3-[4-(2-hydroxyethyl)piperazin-1-yl]propan-2-ol bis(trifluoroacetate)] — 1.5-fold higher, 0.53 µM
- COc1ccc(CNc2ccc(-c3nc4cc(Br)cnc4[nH]3)cc2)cc1 [Example 180, N-[4-(6-Bromo-3H-imidazo[4,5-b]pyridin-2-yl)phenyl]-N-(4-methoxybenzyl)amine bis(trifluoroacetate)] — within 1.5-fold, 0.29 µM
- Clc1cnc2[nH]c(-c3ccc(OCCN4CCOCC4)cc3)nc2c1N1CCCC1 [Example 236, 6-Chloro-2-[4-(2-morpholin-4-ylethoxy)phenyl]-7-pyrrolidin-1-yl-3H-imidazo[4,5-b]pyridine] — within 1.5-fold, 0.41 µM
- COc1ccc(S(=O)(=O)Nc2ccc(-c3nc4ncc(Cl)c(Cl)c4[nH]3)cc2)cc1 [Example 267, N-[4-(6,7-Dichloro-1H-imidazo[4,5-b]pyridin-2-yl)phenyl]-4-methoxybenzenesulfonamide] — within 1.5-fold, 0.26 µM
